In experiment [1] the target is T1, SMARCA2 (Homo sapiens, UniProt P51531).
T1 construct: SMARCA2-HiBiT knock-in Hela monoclonal cell (CS302366); host or cells: HeLa monoclonal cells with heterozygous HiBiT knock-in at the endogenous SMARCA2 locus
Briefly: SMARCA2 HiBiT degradation assay in HeLa cells. It counts as cell-based. To be noted: 18 hours, highest concentration 10 μM. The gist of the method: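 HeLa cells carrying a heterozygous C-terminal HiBiT knock-in on SMARCA2 were seeded at 2500 cells/well. They were treated with 3-fold dilution series, top concentration 10 μM, for 18 h at 37 °C. Remaining SMARCA2-HiBiT was measured by Nano-Glo HiBiT lytic luminescence after 30-60 min at RT, followed by curve fitting.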
(The HiBiT peptide binds its large partner to form an active luciferase.)

Experiment [2] concerns the target T2, SMARCA4 (Homo sapiens, UniProt P51532).
T2 construct: SMARCA4-HiBiT knock-in Hela monoclonal cell (CS3023226); host or cells: HeLa monoclonal cells with heterozygous HiBiT knock-in at the endogenous SMARCA4 locus
Description: SMARCA4 HiBiT degradation assay in HeLa cells. The experiment is classed as cell-based. To be noted: 18 hours, highest concentration 10 μM. Put shortly: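 HeLa monoclonal cells with HiBiT knocked into SMARCA4 were seeded at 2500 cells/well, dosed with compound and incubated 18 hours at 37° C. HiBiT signal reported remaining SMARCA4 protein, and values came from curve fitting.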

Our source for the DC50 and Dmax values is patent publication US20240165244A1 (Prelude Therapeutics Incorporated, priority 2022, published 2024).

Each structure is given as a SMILES string.

T2 sequence (P51532 whole entry): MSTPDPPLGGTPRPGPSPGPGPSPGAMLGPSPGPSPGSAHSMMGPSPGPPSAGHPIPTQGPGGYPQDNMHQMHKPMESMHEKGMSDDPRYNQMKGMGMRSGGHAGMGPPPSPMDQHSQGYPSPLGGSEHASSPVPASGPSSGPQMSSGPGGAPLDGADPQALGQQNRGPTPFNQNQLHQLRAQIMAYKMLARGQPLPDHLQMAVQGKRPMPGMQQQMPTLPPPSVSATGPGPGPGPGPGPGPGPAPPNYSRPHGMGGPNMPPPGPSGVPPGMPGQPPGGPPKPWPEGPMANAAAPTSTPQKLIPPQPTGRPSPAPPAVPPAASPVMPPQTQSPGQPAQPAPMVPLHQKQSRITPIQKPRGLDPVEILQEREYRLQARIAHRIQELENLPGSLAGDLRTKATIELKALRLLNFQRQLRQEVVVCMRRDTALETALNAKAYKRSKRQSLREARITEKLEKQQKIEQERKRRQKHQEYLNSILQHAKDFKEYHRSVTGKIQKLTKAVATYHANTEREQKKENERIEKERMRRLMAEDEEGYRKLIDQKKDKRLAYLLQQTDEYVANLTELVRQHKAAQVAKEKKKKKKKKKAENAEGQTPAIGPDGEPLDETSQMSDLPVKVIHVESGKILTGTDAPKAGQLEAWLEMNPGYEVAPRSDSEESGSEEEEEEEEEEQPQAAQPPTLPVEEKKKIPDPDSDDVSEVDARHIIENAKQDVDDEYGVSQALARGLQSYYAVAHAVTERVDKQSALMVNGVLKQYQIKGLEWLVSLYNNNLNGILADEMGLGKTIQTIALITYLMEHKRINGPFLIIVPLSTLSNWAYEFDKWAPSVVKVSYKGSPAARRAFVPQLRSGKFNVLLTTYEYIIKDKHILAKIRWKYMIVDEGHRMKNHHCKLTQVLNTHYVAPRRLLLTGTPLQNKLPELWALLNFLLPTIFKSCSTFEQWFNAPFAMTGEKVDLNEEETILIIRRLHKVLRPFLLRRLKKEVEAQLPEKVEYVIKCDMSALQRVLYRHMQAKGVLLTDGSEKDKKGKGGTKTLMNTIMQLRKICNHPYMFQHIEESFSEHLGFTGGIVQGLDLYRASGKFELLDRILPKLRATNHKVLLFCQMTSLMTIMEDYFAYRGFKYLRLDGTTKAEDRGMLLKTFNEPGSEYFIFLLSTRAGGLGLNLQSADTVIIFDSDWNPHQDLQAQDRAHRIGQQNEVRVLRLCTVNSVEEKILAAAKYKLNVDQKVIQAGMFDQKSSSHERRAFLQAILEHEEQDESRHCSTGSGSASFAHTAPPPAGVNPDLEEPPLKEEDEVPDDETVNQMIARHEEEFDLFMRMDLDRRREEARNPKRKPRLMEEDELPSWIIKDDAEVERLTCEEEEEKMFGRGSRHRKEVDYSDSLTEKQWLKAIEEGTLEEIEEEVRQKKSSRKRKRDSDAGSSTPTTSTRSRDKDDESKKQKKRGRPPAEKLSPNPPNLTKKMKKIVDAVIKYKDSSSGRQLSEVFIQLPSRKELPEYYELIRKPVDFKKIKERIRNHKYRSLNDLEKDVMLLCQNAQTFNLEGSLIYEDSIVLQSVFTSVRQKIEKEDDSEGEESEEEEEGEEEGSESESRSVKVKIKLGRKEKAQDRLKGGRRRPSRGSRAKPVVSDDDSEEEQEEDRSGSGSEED
T1 sequence (P51531 whole entry): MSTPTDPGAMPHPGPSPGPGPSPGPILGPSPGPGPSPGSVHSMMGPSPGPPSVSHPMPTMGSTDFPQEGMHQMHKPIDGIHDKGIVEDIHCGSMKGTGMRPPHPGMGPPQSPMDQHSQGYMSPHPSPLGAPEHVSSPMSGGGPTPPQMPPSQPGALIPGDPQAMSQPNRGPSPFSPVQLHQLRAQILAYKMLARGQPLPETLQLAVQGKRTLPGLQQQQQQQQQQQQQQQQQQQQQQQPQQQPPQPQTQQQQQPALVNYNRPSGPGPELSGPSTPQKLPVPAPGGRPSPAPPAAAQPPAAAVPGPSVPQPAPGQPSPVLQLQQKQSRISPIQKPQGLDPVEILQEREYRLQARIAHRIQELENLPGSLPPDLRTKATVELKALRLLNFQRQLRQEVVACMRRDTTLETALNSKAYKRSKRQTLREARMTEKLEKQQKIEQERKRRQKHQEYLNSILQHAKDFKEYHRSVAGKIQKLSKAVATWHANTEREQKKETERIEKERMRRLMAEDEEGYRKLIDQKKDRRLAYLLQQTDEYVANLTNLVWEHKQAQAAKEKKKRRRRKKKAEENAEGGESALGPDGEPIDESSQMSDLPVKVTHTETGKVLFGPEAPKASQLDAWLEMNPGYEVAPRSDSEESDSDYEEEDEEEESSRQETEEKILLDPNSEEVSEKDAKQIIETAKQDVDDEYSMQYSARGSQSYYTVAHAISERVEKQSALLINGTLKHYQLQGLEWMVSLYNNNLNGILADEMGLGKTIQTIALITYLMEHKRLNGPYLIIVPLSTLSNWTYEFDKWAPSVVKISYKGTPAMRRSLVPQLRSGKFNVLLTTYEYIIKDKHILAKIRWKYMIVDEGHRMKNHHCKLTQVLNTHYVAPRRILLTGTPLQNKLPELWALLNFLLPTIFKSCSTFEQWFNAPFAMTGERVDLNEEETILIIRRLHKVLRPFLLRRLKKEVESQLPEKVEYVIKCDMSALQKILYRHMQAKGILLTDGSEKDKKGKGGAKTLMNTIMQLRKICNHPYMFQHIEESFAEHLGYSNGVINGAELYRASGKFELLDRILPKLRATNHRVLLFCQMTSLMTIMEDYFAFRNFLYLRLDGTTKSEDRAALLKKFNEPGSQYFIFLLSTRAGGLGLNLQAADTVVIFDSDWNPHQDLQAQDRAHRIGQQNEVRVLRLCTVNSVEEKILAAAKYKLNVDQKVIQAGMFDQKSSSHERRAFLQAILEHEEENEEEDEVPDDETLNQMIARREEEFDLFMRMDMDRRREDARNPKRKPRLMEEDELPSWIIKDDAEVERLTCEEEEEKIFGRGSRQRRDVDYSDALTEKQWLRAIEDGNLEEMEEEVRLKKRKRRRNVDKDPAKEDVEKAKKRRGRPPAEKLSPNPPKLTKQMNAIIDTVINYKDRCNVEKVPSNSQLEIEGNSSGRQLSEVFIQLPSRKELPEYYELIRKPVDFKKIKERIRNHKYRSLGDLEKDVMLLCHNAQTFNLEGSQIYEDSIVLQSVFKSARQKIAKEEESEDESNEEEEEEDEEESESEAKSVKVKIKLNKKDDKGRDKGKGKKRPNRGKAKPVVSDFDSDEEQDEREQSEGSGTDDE

In experiment [1], `Cc1nc(CN2CCN(c3ccc4c(c3)C(=O)N(C3CCC(=O)NC3=O)C4)CC2)cnc1O[C@H]1CN2c3cc(-c4cccc(F)c4O)nnc3NC[C@]2(C(F)F)C1` (stereo partly drawn) [Example 40, 3-(6-(4-((5-(((6aS,8R)-6a-(difluoromethyl)-2-(3-fluoro-2-hydroxyphenyl)-5,6,6a,7,8,9-hexahydropyrrolo[1′,2′:4,5]pyrazino[2,3-c]pyridazin-8-yl)oxy)-6-methylpyrazin-2-yl)methyl)piperazin-1-yl)-1-oxoisoindolin-2-yl)piperidine-2,6-dione] had a DC50 below 100 nM and a Dmax above 75%. In experiment [2], this compound showed a DC50 of 100 to 1000 nM and a Dmax below 50%.
As to `Cc1cc(O[C@H]2CN3c4cc(-c5cccc(F)c5O)nnc4NC[C@@]3(CF)C2)ncc1CN1CCN(c2ccc3c(c2)C(=O)N([C@H]2CCC(=O)NC2=O)C3)CC1` [Example 58, (S)-3-(6-(4-((6-(((6aR,8R)-2-(3-Fluoro-2-hydroxyphenyl)-6a-(fluoromethyl)-5,6,6a,7,8,9-hexahydropyrrolo[1′,2′:4,5]pyrazino[2,3-c]pyridazin-8-yl)oxy)-4-methylpyridin-3-yl)methyl)piperazin-1-yl)-1-oxoisoindolin-2-yl)piperidine-2,6-dione], the DC50 in experiment [1] is below 100 nM; in experiment [2] it was above 1000 nM. In addition, the figures for the Dmax in experiment [1] and in experiment [2] were above 75% and below 50%, respectively.
The corresponding values for `O=C1CCC(N2Cc3ccc(N4CCN(Cc5ccc(O[C@@H]6C[C@@H]7CNc8nnc(-c9cc(F)cc(F)c9O)cc8N7C6)cc5)CC4)cc3C2=O)C(=O)N1` (stereo partly drawn) [Example 1, 3-(6-(4-(4-(((6aR,8R)-2-(3,5-difluoro-2-hydroxyphenyl)-5,6,6a,7,8,9-hexa-hydropyrrolo[1′,2′:4,5]pyrazino[2,3-c]pyridazin-8-yl)oxy)benzyl)piperazin-1-yl)-1-oxoisoindolin-2-yl)piperidine-2,6-dione] are below 100 nM, below 100 nM, above 75% and above 75%.
As for `Cc1nc(CN2CCN(c3ccc4c(c3)C(=O)N([C@H]3CCC(=O)NC3=O)C4)CC2)cnc1O[C@H]1CN2c3cc(-c4cccc(F)c4O)nnc3NC[C@]2(CF)C1` [Example 66, (S)-3-(6-(4-((5-(((6aS,8R)-2-(3-fluoro-2-hydroxyphenyl)-6a-(fluoromethyl)-5,6,6a,7,8,9-hexahydropyrrolo[1′,2′:4,5]pyrazino[2,3-c]pyridazin-8-yl)oxy)-6-methylpyrazin-2-yl)methyl)piperazin-1-yl)-1-oxoisoindolin-2-yl)piperidine-2,6-dione], in experiment [1], the DC50 is below 100 nM and the Dmax was above 75%. In addition, in experiment [2], the DC50 was below 100 nM and the greatest degradation seen (Dmax) is 50 to 75%.
As to `CC[C@@]12CNc3nnc(-c4cccc(F)c4O)cc3N1C[C@H](Oc1nc(C)c(CN3CCN(c4ccc5c(c4)C(=O)N([C@H]4CCC(=O)NC4=O)C5)CC3)cc1C#N)C2` [Example 59, 5-((4-(2-((S)-2,6-dioxopiperidin-3-yl)-3-oxoisoindolin-5-yl)piperazin-1-yl)methyl)-2-(((6aR,8R)-6a-ethyl-2-(3-fluoro-2-hydroxyphenyl)-5,6,6a,7,8,9-hexahydropyrrolo[1′,2′:4,5]pyrazino[2,3-c]pyridazin-8-yl)oxy)-6-methylnicotinonitrile], the DC50 in experiment [1] and in experiment [2] was below 100 nM each time. Further, the values for the Dmax in experiment [1] and in experiment [2] were above 75% and 50 to 75%, respectively.
Turning to `CN(c1ccc(CN2CCN(c3ccc4c(c3)C(=O)N(C3CCC(=O)NC3=O)C4)CC2)cn1)[C@@H]1C[C@@H]2CNc3nnc(-c4cccc(F)c4O)cc3N2C1` (stereo partly drawn) [Example 35, 3-(6-(4-((6-(((6aR,8R)-2-(3-fluoro-2-hydroxyphenyl)-5,6,6a,7,8,9-hexahydro-pyrrolo[1′,2′:4,5]pyrazino[2,3-c]pyridazin-8-yl)(methyl)amino)pyridin-3-yl)methyl)piperazin-1-yl)-1-oxoisoindolin-2-yl)piperidine-2,6-dione], in experiment [1], the DC50 was above 1000 nM and the Dmax lay in the range of 50 to 75%. In experiment [2], the DC50 was above 1000 nM and the Dmax is below 50%.
In experiment [1], `Cc1cc(CN2CCC(c3ccc4c(c3)C(=O)N([C@H]3CCC(=O)NC3=O)C4)CC2)ncc1O[C@H]1CN2c3cc(-c4cccc(C)c4O)nnc3NC[C@]2(C(F)F)C1` [Example 94, (S)-3-(6-(1-((5-(((6aS,8R)-6a-(difluoromethyl)-2-(2-hydroxy-3-methylphenyl)-5,6,6a,7,8,9-hexahydropyrrolo [1′,2′:4,5]pyrazino[2,3-c]pyridazin-8-yl)oxy)-4-methylpyridin-2-yl)methyl)piperidin-4-yl)-1-oxoisoindolin-2-yl)piperidine-2,6-dione] displayed a DC50 below 100 nM and a Dmax of 50 to 75%. In experiment [2], this compound yielded a DC50 above 1000 nM and a Dmax below 50%.
The corresponding values for `Cc1c(O[C@H]2CN3c4cc(-c5cccc(F)c5O)nnc4NC[C@]3(C(F)F)C2)cnc(CN2CCN(c3ccc4c(c3)C(=O)N([C@H]3CCC(=O)NC3=O)C4)CC2)c1C` [Example 46, (S)-3-(6-(4-((5-(((6aS,8R)-6a-(difluoromethyl)-2-(3-fluoro-2-hydroxyphenyl)-5,6,6a,7,8,9-hexahydropyrrolo [1′,2′:4,5]pyrazino[2,3-c]pyridazin-8-yl)oxy)-3,4-dimethylpyridin-2-yl)methyl)piperazin-1-yl)-1-oxoisoindolin-2-yl)piperidine-2,6-dione] are below 100 nM, above 75%, below 100 nM and above 75%.
The corresponding values for `CC[C@]12CNc3nnc(-c4cccc(F)c4O)cc3N1C[C@H](Oc1cnc(CN3CCN(c4ccc5c(c4)CN([C@H]4CCC(=O)NC4=O)C5=O)CC3)c(C(F)(F)F)c1)C2` [Example 73, (S)-3-(5-(4-((5-(((6aS,8R)-6a-ethyl-2-(3-fluoro-2-hydroxyphenyl)-5,6,6a,7,8,9-hexahydropyrrolo[1′,2′:4,5]pyrazino[2,3-c]pyridazin-8-yl)oxy)-3-(trifluoromethyl)pyridin-2-yl)methyl)piperazin-1-yl)-1-oxoisoindolin-2-yl)piperidine-2,6-dione] are below 100 nM, above 75%, below 100 nM and 50 to 75%.
The matching figures for `O=C1CCC(N2Cc3ccc(N4CCN(Cc5ccc(O[C@@H]6C[C@@H]7CNc8nnc(-c9cc(F)cc(Cl)c9O)cc8N7C6)cc5)CC4)cc3C2=O)C(=O)N1` (stereo partly drawn) [Example 22, 3-(6-(4-(4-(((6aR,8R)-2-(3-chloro-5-fluoro-2-hydroxyphenyl)-5,6,6a,7,8,9-hexahydropyrrolo[1′,2′:4,5]pyrazino[2,3-c]pyridazin-8-yl)oxy)benzyl)piperazin-1-yl)-1-oxoisoindolin-2-yl)piperidine-2,6-dione]: below 100 nM, above 75%, below 100 nM and above 75%.

For orientation: DC50 means the concentration giving 50% degradation. High values mean a less potent degrader, low ones a more potent degrader. One may read the Dmax as the greatest extent of degradation seen. High values mean a fuller loss of target, low ones a partial loss of target.
